We go through 1 molecule from ChEMBL document CHEMBL5728557, “Azetidine derivative, preparation method therefor, and use thereof” (2021).

Series [1] has as its target Voltage-gated inwardly rectifying potassium channel KCNH2 (Homo sapiens, UniProt Q12809). The series can be described thus: Safety Test: The effect of test compounds on hERG potassium channel were determined using Predictor hERG Fluorescence Polarization Assay at concentrations of 3, 10, and 30 μM.
For series [2], the target named is CYP2D6 (Homo sapiens, UniProt P10635). Put plainly: (§1) As such, the compound of the present invention has no significant inhibitory effect on CYP1A2, CYP2D6 and CYP3A4, and thus has no safety issue caused by metabolism interactions among different drugs due to inhibition of the enzymes.
The target of series [3] is CYP3A4 (Homo sapiens, UniProt P08684). Described as §1.
The target in series [4] is T1, Cytochrome P450 1A2 (Homo sapiens, UniProt P05177).
T1 sequence (P05177 whole entry): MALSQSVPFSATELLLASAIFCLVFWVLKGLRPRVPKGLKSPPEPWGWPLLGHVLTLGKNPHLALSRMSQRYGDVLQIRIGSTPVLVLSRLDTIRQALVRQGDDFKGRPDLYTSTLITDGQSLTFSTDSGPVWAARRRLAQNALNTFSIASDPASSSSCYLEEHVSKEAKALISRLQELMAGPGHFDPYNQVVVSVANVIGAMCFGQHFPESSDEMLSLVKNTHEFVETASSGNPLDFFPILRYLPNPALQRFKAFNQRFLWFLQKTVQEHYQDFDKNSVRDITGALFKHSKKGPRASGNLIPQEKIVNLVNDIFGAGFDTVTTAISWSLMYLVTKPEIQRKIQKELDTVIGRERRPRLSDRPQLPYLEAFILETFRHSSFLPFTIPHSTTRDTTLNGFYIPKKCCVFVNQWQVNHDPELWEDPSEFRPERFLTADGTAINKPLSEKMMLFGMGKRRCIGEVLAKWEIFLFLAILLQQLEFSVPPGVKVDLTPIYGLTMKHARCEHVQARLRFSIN
The description is as §1.

Chain of CYP3A4 (P08684 whole entry): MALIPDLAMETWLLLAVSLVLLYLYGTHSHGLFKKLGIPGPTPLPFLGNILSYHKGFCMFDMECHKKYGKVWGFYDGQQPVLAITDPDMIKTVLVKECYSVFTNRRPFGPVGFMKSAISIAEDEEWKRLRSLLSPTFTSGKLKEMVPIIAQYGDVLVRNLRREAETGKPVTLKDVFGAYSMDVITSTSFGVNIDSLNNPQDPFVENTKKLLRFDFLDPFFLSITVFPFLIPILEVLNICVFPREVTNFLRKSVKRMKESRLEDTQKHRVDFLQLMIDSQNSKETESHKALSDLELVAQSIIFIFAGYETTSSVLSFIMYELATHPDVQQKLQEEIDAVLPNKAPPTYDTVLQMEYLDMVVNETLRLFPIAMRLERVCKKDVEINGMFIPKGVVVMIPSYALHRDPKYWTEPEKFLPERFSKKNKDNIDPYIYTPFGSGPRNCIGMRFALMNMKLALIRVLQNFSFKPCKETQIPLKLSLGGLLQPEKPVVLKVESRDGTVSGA
Chain of Voltage-gated inwardly rectifying potassium channel KCNH2 (Q12809 whole entry): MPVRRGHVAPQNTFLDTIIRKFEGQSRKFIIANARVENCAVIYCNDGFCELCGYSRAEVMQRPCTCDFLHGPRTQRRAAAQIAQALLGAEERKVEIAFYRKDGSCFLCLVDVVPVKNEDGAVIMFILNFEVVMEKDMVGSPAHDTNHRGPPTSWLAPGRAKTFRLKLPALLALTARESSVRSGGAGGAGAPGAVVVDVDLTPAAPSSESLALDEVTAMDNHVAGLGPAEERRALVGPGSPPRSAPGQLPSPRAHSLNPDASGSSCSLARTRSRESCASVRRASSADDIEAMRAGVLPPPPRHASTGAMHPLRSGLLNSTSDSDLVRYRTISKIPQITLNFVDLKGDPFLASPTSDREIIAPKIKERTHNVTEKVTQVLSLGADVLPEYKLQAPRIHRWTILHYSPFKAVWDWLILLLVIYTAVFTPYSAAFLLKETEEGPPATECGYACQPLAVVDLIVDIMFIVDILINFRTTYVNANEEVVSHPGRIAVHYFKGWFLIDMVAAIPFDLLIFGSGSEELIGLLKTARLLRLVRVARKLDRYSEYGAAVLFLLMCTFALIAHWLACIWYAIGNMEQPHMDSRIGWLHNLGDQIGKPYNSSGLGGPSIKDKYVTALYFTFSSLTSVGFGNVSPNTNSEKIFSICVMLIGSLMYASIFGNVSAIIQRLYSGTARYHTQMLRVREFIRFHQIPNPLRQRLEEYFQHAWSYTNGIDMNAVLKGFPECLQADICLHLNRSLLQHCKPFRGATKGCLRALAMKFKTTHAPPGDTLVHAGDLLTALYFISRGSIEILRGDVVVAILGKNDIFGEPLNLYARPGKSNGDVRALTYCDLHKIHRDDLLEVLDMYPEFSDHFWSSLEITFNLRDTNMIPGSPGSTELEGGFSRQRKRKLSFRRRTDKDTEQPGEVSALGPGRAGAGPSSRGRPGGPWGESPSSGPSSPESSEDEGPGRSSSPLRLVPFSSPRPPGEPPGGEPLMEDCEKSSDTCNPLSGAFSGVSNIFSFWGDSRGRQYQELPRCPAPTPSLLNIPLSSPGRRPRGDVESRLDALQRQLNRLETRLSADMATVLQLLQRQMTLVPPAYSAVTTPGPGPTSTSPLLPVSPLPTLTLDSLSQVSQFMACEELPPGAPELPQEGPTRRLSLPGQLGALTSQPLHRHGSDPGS
Chain of CYP2D6 (P10635 whole entry): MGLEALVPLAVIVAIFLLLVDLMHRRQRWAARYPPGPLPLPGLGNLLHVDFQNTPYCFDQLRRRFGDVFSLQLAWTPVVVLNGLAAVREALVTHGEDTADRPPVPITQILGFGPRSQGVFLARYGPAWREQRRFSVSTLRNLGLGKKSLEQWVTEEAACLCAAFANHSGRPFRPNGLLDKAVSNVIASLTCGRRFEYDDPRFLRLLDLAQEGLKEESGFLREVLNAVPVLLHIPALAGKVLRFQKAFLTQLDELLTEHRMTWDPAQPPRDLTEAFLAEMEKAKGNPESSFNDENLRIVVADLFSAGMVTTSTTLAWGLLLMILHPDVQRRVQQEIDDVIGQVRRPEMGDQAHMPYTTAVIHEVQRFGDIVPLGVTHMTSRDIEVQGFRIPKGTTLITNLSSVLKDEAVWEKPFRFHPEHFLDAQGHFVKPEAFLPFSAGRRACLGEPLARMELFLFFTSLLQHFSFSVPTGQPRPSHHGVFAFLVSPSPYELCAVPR

For orientation: IC50 means the concentration at which inhibition is half-maximal. As to `Cc1nn(C2(CC#N)CN(S(=O)(=O)C(C)C)C2)cc1-c1ncnc2[nH]ccc12`, the IC50 in series [1] is > 30 µM; in series [2] it was > 10 µM; in series [3], > 10 µM; in series [4], > 10 µM.
